Measurements reported in patent US10934277B2, “Enantiomerically purified GPER agonist for use in treating disease states and conditions” (Linnaeus Therapeutics, Inc., priority 2018, dated 2021).
Values after ≈ are worked out from the molar mass of the structure shown.

How the values were obtained:
[1] = biological target: T1, CYP2C8 (Homo sapiens, UniProt P10632); assay: in vitro; type: in vitro ADME
T1 sequence (P10632 1-490): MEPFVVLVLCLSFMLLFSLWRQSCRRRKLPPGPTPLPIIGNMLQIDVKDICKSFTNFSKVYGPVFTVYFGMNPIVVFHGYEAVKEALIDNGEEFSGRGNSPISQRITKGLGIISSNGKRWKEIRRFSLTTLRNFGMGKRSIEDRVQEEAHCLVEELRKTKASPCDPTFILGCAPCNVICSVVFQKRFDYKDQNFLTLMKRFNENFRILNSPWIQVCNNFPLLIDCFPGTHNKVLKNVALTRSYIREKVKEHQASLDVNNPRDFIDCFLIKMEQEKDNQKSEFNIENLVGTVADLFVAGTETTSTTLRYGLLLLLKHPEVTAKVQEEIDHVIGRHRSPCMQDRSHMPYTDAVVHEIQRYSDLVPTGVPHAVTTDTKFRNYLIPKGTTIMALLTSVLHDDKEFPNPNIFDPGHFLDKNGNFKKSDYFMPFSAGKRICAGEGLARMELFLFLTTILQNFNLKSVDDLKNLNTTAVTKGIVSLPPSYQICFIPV
Protocol: (§1) Cytochrome P450 Inhibition (HPLC-UV/VIS and HPLC-MS/MS detection)
(§2) Peak areas corresponding to the metabolite of each substrate were recorded. The percent of control activity was then calculated by comparing the peak area obtained in the presence of the test compound to that obtained in the absence of the test compound. Subsequently, the percent inhibition was calculated by subtracting the percent control activity from 100 for each compound. IC50 values (concentration causing a half-maximal inhibition of control values) were determined by non-linear regression analysis of the concentration-response curve using Hill equation curve fitting.

[2] = biological target: CYP2D6 (Homo sapiens, UniProt P10635); assay: in vitro; type: in vitro ADME
Protocol: as §1, §2

[3] = biological target: OPRM1 (Homo sapiens, UniProt P35372); assay: Off target selectivity assay, OPRM1; type: cell-based; conditions: dose response, concentrations up to 10 μM; read-out: IC50 or EC50 on OPRM1
Protocol: Final assay vehicle concentration was 1%.
For Gi coupled GPCRs, EC80 forskolin was included.
DMSO concentration for all readouts is ≤0.2%.
Probenicid was prepared fresh. Cells were loaded with dye prior to testing.

[4] = pKa titration test; type: physicochemical; conditions: range of 3-11
[5] = Kinetic solubility measurement in bio-relevant media; type: physicochemical; conditions: FeSSIF
[6] = biological target: T2, OCT2 (Homo sapiens, UniProt O15244); assay: Drug transporter fluorometric inhibition, OCT2; type: in vitro ADME
T2 sequence (O15244 1-555): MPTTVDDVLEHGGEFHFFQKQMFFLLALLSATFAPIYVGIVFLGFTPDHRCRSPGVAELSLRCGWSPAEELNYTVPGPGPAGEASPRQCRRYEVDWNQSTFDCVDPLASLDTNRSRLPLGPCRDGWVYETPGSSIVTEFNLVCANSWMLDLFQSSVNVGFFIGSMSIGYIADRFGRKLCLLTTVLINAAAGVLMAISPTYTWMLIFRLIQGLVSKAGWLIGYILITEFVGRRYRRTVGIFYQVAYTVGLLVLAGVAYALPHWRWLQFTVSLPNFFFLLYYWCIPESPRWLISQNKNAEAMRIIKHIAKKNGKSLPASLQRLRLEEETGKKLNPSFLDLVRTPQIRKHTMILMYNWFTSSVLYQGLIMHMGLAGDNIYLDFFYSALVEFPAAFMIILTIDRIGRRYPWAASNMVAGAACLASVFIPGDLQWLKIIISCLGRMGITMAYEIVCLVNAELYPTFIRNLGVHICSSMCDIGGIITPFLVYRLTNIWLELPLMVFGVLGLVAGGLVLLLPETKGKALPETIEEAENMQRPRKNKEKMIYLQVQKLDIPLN
Protocol: (§3) Drug transporter (fluorometric inhibition)
(§4) The percent of control was calculated using the following equation. The percent of inhibition was calculated by subtracting the percent of control from 100. The IC50 value (concentration causing a half-maximal inhibition of the control value) was determined by non-linear regression analysis of the concentration-response curve using the Hill equation.
(§5) Compound is the individual reading in the presence of the test compound. T1 is the mean reading in the absence of the test compound. Background (for P-gp and BCRP) is the mean reading in the presence of the highest effective concentration of the reference inhibitor. Background (for OATP1B1, OATP1B3, OAT1, OAT3, and OCT2) is the mean reading in the absence of both the test compound and the substrate.

[7] = biological target: CYP2C9 (Homo sapiens, UniProt P11712); assay: in vitro; type: in vitro ADME
Protocol: as §1, §2

[8] = biological target: T3, OATP1B3 (Homo sapiens, UniProt Q9NPD5); assay: Drug transporter fluorometric inhibition, OATP1B3; type: in vitro ADME
T3 sequence (Q9NPD5 1-702): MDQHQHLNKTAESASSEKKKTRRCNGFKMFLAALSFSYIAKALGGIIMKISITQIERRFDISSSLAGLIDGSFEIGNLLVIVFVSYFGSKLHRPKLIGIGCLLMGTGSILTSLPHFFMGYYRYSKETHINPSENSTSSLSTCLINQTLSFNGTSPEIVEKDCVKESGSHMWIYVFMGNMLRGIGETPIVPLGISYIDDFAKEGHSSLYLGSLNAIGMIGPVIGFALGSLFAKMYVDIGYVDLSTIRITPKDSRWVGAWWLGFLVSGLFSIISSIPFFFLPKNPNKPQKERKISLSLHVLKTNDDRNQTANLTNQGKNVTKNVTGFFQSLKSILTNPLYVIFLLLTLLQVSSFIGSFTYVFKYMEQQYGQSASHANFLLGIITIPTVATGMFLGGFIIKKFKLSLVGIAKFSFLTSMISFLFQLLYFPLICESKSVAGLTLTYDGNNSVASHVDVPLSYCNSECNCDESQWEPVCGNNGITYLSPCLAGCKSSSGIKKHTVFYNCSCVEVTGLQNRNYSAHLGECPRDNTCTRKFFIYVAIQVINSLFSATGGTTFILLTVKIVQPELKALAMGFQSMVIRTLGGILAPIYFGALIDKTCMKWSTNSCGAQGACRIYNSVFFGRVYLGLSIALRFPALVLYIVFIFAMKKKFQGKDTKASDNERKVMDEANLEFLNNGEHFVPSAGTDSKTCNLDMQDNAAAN
Protocol: as §3, §4, §5

CYP2D6, sequence (P10635 whole entry, species assumed): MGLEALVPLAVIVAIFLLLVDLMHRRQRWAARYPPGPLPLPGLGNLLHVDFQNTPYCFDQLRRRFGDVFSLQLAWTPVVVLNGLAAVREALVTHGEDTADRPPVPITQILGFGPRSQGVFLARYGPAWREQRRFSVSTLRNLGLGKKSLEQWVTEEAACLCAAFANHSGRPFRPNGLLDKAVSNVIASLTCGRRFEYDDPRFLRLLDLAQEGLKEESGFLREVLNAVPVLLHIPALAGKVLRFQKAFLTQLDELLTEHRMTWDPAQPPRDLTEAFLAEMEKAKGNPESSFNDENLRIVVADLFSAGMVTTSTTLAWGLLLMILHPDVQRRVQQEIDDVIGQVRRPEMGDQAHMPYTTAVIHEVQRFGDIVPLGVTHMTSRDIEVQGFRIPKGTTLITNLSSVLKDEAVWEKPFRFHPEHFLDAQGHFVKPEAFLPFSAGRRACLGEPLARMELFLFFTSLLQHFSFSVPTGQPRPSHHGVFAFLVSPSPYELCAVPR
OPRM1, sequence (P35372 whole entry): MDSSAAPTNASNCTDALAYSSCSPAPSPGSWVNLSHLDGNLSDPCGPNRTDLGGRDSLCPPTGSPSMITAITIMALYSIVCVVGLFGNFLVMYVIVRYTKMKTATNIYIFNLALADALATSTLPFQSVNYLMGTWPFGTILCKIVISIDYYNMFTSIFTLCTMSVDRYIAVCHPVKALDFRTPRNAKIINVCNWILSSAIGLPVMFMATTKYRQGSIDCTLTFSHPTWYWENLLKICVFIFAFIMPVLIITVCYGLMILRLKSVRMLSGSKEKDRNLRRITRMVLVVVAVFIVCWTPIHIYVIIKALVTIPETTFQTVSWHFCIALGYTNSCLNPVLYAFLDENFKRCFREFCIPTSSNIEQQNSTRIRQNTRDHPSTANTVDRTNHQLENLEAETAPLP
CYP2C9, sequence (P11712 whole entry, species assumed): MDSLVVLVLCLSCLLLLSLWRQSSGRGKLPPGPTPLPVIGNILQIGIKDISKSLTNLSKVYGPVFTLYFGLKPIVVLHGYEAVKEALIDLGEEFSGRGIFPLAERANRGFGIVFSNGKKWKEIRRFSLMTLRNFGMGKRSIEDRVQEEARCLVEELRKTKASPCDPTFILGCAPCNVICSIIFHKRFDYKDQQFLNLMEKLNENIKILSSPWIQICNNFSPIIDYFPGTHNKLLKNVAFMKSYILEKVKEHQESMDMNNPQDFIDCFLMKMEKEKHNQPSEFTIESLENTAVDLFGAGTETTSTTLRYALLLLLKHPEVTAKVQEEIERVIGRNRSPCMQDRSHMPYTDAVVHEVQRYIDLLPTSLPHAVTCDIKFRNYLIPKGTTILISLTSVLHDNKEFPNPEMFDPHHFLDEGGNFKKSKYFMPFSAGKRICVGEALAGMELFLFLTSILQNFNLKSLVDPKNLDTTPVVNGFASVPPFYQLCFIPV

Row | inhibition at 10 µM [1] | inhibition at 10 µM [2] | IC50 [3] | pKa by titration [4] | form change in the three bio-relevant media ([5]; SGF, FaSSIF, after 1, 2, 4 and 24 hrs) | solubility ([5]; pH 5, thermodynamic from solid, 37° C., read-out: highest solubility, observed in FeSSIF) | inhibition at 10 µM [6] | inhibition at 10 µM [7] | inhibition at 10 µM [8] | SMILES
1 | 66.7% | 74.3% | 6.68 µM | no pKa value was observed | No form change was observed | ~37 µg/mL (≈ 89.7 µM) |  |  |  | CC(=O)c1ccc2c(c1)[C@@H]1C=CC[C@@H]1[C@H](c1cc3c(cc1Br)OCO3)N2 (single isomer, unassigned) [SRR G-1]
2 |  |  |  |  |  |  | 53.2% | 50.4% | 74.3% | CC(=O)c1ccc2c(c1)[C@H]1C=CC[C@H]1[C@@H](c1cc3c(cc1Br)OCO3)N2 [RSS G-1, 1-((3aR,4S,9bS)-4-(6-bromobenzo[d][1,3]dioxol-5-yl)-3a,4,5,9b-tetrahydro-3H-cyclopenta[c]quinolin-8-yl)ethan-1-one]
